Target: T1, Recombinant human liver GK1 (GST-GK) (Homo sapiens, UniProt P35557)
T1 construct: made in house; host or cells: E. coli
T1 sequence (P35557 1-466 isoform P35557-2): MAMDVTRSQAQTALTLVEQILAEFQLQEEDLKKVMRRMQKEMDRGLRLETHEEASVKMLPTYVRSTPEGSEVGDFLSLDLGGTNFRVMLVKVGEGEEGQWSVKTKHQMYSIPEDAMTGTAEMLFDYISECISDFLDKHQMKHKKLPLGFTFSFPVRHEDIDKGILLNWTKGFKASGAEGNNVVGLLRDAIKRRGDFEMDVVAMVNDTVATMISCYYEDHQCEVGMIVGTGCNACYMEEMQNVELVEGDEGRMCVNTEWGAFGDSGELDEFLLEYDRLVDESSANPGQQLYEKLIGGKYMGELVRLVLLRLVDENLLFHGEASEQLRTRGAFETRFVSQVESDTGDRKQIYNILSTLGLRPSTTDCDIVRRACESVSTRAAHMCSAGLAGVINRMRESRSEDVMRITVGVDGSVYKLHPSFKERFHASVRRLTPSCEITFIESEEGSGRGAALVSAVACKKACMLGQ
Test: In vitro glucokinase activity (G6PDH-coupled NADH assay)
Type: biochemical
Settings: for SC1.5 (concentration of activator that produced a 50% increase in the activity of GK): 30° C., 5 mM D-glucose, 10% DMSO
In short: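 Activation measured as the rate of OD340 rise from G6PDH-coupled NADH production, relative to 10% DMSO control, reported as SC1.5 (concentration for 50% activity increase). Conditions: 30° C, pH 7.1 Hepes, 5 mM glucose, 1 mM ATP, purified recombinant GST-human GK1, compound preincubated 10 min before enzyme addition.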

SMILES | SC1.5 (concentration of activator that produced a 50% increase in the activity of GK) [µM] | fold act. @ 30 μM (at 30 μM test compound) [fold]
COc1cccc(OC2=CC(=O)N([C@@H](CC(C)C)C(=O)Nc3ccn(CC(C)(C)O)n3)C2)c1 [Example 165, (S)-2-[4-(3-Methoxy-phenoxy)-2-oxo-2,5-dihydro-pyrrol-1-yl]-4-methyl-pentanoic acid [1-(2-hydroxy-2-methyl-propyl)-1H-pyrazol-3-yl]-amide] | 0.243 | 
CC(C)(O)Cn1ccc(NC(=O)[C@H](CC2CCCC2)N2CC(OCc3ccccc3)=CC2=O)n1 [Example 14, (S)-2-(4-Benzyloxy-2-oxo-2,5-dihydro-pyrrol-1-yl)-3-cyclopentyl-N-[1-(2-hydroxy-2-methyl-propyl)-1H-pyrazol-3-yl]-propionamide] | 0.368 | 
CCN(C)C1=CC(=O)N([C@@H](CC2CCCCC2)C(=O)Nc2ccn(CC(C)(C)O)n2)C1 [Example 233, (S)-3-cyclohexyl-2-[4-(ethyl-methyl-amino)-2-oxo-2,5-dihydro-pyrrol-1-yl]-N-[1-(2-hydroxy-2-methyl-propyl)-1H-pyrazol-3-yl]-propionamide] | 13.348 | 
O=C(Nc1ccn(C[C@@H](O)CO)n1)[C@H](Cc1ccccc1)N1CC(Oc2ccccc2Cl)=CC1=O [Example 181, (S)-2-[4-(2-chloro-phenoxy)-2-oxo-2,5-dihydro-pyrrol-1-yl]-N-[1-((R)-2,3-dihydroxy-propyl)-1H-pyrazol-3-yl]-3-phenyl-propionamide] | 1.064 | 
CNC(=O)NC(=O)C(CC1CCCCC1)N1CC(Oc2cccc(OC)c2Cl)=CC1=O (stereo not shown) [Example 58, 1-{2-[4-(2-Chloro-3-methoxy-phenoxy)-2-oxo-2,5-dihydro-pyrrol-1-yl]-3-cyclohexyl-propionyl}-3-methyl-urea] | 1.597 | 
CC(C)(O)Cn1ccc(NC(=O)[C@H](CC2CCCCC2)N2CC(Oc3cccc(F)c3)=CC2=O)n1 [Example 206, (S)-3-cyclohexyl-2-[4-(3-fluoro-phenoxy)-2-oxo-2,5-dihydro-pyrrol-1-yl]-N-[1-(2-hydroxy-2-methyl-propyl)-1H-pyrazol-3-yl]-propionamide] | 0.034 | 
COC1=CC(=O)N([C@@H](CC2CCCC2)C(=O)Nc2nc3ccccc3s2)C1 [Example 3, (S)-N-Benzothiazol-2-yl-3-cyclopentyl-2-(4-methoxy-2-oxo-2,5-dihydro-pyrrol-1-yl)-propionamide] | > 30 | 1.3
CC(C)C[C@@H](C(=O)Nc1ccn(C[C@@H]2COC(C)(C)O2)n1)N1CC(Oc2cccc(Br)c2F)=CC1=O [Example 128, (S)-2-[4-(3-Bromo-2-fluoro-phenoxy)-2-oxo-2,5-dihydro-pyrrol-1-yl]-4-methyl-pentanoic acid [1-((R)-2,2-dimethyl-[1,3]dioxolan-4-yl-methyl)-1H-pyrazol-3-yl]-amide] | 0.351 | 
COc1cccc(OC2=CC(=O)N([C@@H](CC3CCCC3)C(=O)Nc3ccn(C[C@@H](O)CO)n3)C2)c1Cl [Example 55, (S)-2-[4-(2-Chloro-3-methoxy-phenoxy)-2-oxo-2,5-dihydro-pyrrol-1-yl]-3-cyclopentyl-N-[1-((R)-2,3-dihydroxy-propyl)-1H-pyrazol-3-yl]-propionamide] | 0.007 | 
CC(C)C[C@@H](C(=O)Nc1ccn(C[C@@H]2CNC(=O)O2)n1)N1CC(Oc2ccccc2Cl)=CC1=O [Example 172, (S)-2-[4-(2-chloro-phenoxy)-2-oxo-2,5-dihydro-pyrrol-1-yl]-4-methyl-pentanoic acid [1-((S)-2-oxo-oxazolidin-5-ylmethyl)-1H-pyrazol-3-yl]-amide] | 0.628 | 
CCOC(=O)Cn1ccc(NC(=O)[C@H](CC(C)C)N2CC(Oc3cccc(C4CC4)c3F)=CC2=O)n1 [Example 148, (3-{(S)-2-[4-(3-Cyclopropyl-2-fluoro-phenoxy)-2-oxo-2,5-dihydro-pyrrol-1-yl]-4-methyl-pentanoylamino}-pyrazol-1-yl)-acetic acid ethyl ester] | 0.21 | 
COc1cccc(OC2=CC(=O)N([C@@H](CC3CCCCC3)C(=O)Nc3ccn(CC(C)(C)O)n3)C2)c1Cl [Example 57, (S)-2-[4-(2-Chloro-3-methoxy-phenoxy)-2-oxo-2,5-dihydro-pyrrol-1-yl]-3-cyclohexyl-N-[1-(2-hydroxy-2-methyl-propyl)-1H-pyrazol-3-yl]-propionamide] | 0.012 | 
O=C(Nc1ccn(CCO)n1)[C@H](CC1CCCC1)N1CC(Oc2c(F)cccc2F)=CC1=O [Example 89, (S)-3-Cyclopentyl-2-[4-(2,6-difluoro-phenoxy)-2-oxo-2,5-dihydro-pyrrol-1-yl]-N-[1-(2-hydroxy-ethyl)-1H-pyrazol-3-yl]-propionamide] | 0.05 | 

Other lines, results leading:

SC1.5 (concentration of activator that produced a 50% increase in the activity of GK) [µM] | fold act. @ 30 μM (at 30 μM test compound) [fold] | SMILES
0.97 |  | CC(C)C[C@@H](C(=O)Nc1ccn(C[C@@H](O)CO)n1)N1CC(Oc2cccc(C(F)(F)F)c2)=CC1=O [Example 96, (S)-4-Methyl-2-[2-oxo-4-(3-trifluoromethyl-phenoxy)-2,5-dihydro-pyrrol-1-yl]-pentanoic acid [1-((R)-2,3-dihydroxy-propyl)-1H-pyrazol-3-yl]-amide]
6.54 |  | COC1=CC(=O)N([C@@H](CC2CCCC2)C(=O)Nc2cnccn2)C1 [Example 9, (S)-3-Cyclopentyl-2-(4-methoxy-2-oxo-2,5-dihydro-pyrrol-1-yl)-N-pyrazin-2-yl-propionamide]
0.566 |  | CCOc1ccc(F)c(OC2=CC(=O)N([C@@H](CC(C)C)C(=O)Nc3cnc([C@H]4COC(C)(C)O4)cn3)C2)c1F [Example 152, (S)-2-[4-(3-Ethoxy-2,6-difluoro-phenoxy)-2-oxo-2,5-dihydro-pyrrol-1-yl]-4-methyl-pentanoic acid [5-((S)-2,2-dimethyl-[1,3]dioxolan-4-yl)-pyrazin-2-yl]-amide]
0.211 |  | CC(C)C[C@@H](C(=O)Nc1ccn(C[C@@H](O)CO)n1)N1CC(Oc2cccc(Cl)c2Cl)=CC1=O.Cl [Example 80, (S)-2-[4-(2,3-Dichloro-phenoxy)-2-oxo-2,5-dihydro-pyrrol-1-yl]-4-methyl-pentanoic acid [1-((R)-2,3-dihydroxy-propyl)-1H-pyrazol-3-yl]-amide Hydrochloride]
3.15 |  | COC1=CC(=O)N([C@@H](CC2CCCC2)C(=O)Nc2ccn(CC(C)(C)OC)n2)C1 [Example 5, (S)-3-Cyclopentyl-N-[1-(2-methoxy-2-methyl-propyl)-1H-pyrazol-3-yl]-2-(4-methoxy-2-oxo-2,5-dihydro-pyrrol-1-yl)-propionamide]
0.009 |  | O=C(Nc1ccn(C[C@@H](O)CO)n1)[C@H](CC1CCCCC1)N1CC(Oc2ccccc2Cl)=CC1=O [Example 63, (S)-2-[4-(2-Chloro-phenoxy)-2-oxo-2,5-dihydro-pyrrol-1-yl]-3-cyclohexyl-N-[1-((R)-2,3-dihydroxy-propyl)-1-H-pyrazol-3-yl]-propionamide]
0.036 |  | O=C(Nc1ccn(C[C@H](O)CO)n1)[C@H](CC1CCCCC1)N1CC(Oc2c(F)cccc2F)=CC1=O [Example 37, (S)-3-Cyclohexyl-2-[4-(2,6-difluoro-phenoxy)-2-oxo-2,5-dihydro-pyrrol-1-yl]-N-[1-((S)-2,3-dihydroxy-propyl)-1H-pyrazol-3-yl]-propionamide]
4.435 |  | CCOc1ccc(F)c(OC2=CC(=O)N([C@H](CC3CCOCC3)C(=O)Nc3ccn(CC(C)(C)O)n3)C2)c1F (single isomer, unassigned) [Example 258]
0.044 |  | CCOc1ccc(F)c(OC2=CC(=O)N(C(CC3CCOCC3)C(=O)Nc3ccn(CC(C)(C)O)n3)C2)c1F (stereo not shown) [Example 256, 2-[4-(3-Ethoxy-2,6-difluoro-phenoxy)-2-oxo-2,5-dihydro-pyrrol-1-yl]-N-[1-(2-hydroxy-2-methyl-propyl)-1H-pyrazol-3-yl]-3-(tetrahydro-pyran-4-yl)-propionamide]
0.093 |  | CC1(C)OC[C@@H](Cn2ccc(NC(=O)[C@H](CC3CCCC3)N3CC(Oc4c(F)cccc4F)=CC3=O)n2)O1 [Example 87, (S)-3-Cyclopentyl-2-[4-(2,6-difluoro-phenoxy)-2-oxo-2,5-dihydro-pyrrol-1-yl]-N-[1-((R)-2,2-dimethyl-[1,3]dioxolan-4-yl-methyl)-1H-pyrazol-3-yl]-propionamide]
0.039 |  | COCCn1ccc(NC(=O)[C@H](CC2CCCCC2)N2CC(Oc3ccccc3C(F)(F)F)=CC2=O)n1.Cl [Example 91, (S)-3-Cyclohexyl-N-[1-(2-methoxy-ethyl)-1H-pyrazol-3-yl]-2-[2-oxo-4-(2-trifluoromethyl-phenoxy)-2,5-dihydro-pyrrol-1-yl]-propionamide Hydrochloride]

Reference: US7741327B2 (Hoffmann-La Roche Inc., priority 2008, dated 2010)
